The text below walks through data of ChEMBL document CHEMBL4043138, “Synthesis of antimalarial amide analogues based on the plant serrulatane diterpenoid 3,7,8-trihydroxyserrulat-14-en-19-oic acid” (Bioorg Med Chem Lett, 2017).

Active and inactive are the calls of the source. No cut-off for these calls is given here.

The subject of data set [1] is Plasmodium falciparum. The data set can be described thus: Antimalarial activity against Plasmodium falciparum 3D7 after 72 hrs by DAPI staining-based fluorescence microscopic analysis. Type of data set: functional. Particulars: 3D7, 72 h.
Data set [2] relates to Plasmodium falciparum. The experiment in a line: Antimalarial activity against Plasmodium falciparum Dd2 after 72 hrs by DAPI staining-based fluorescence microscopic analysis. It is filed as functional. The conditions noted are these: Dd2, 72 h.
Data set [3] can be described thus: Selectivity ratio of IC50 for Plasmodium falciparum Dd2 to IC50 for Plasmodium falciparum 3D7. Type of data set: functional.
The test system of data set [4] is HEK293. The data set can be described thus: (§1) Cytotoxicity against HEK293 cells assessed as cell growth inhibition at 80 uM after 72 hrs by Alamar blue assay relative to control. Type of data set: cell-based. Particulars: human, hek293, 72 h, 80 µM. In general terms: Resazurin is reduced to fluorescent resorufin, in cell work by metabolically active cells.
The subject of data set [5] is HEK293. The experiment in a line: Cytotoxicity against HEK293 cells assessed as cell growth inhibition after 72 hrs by Alamar blue assay. Type of data set: cell-based. Particulars: Homo sapiens, HEK293, 72 h.
Data set [6] is described as follows: Selectivity index, ratio of IC50 for HEK293 cells to IC50 for Plasmodium falciparum 3D7. It is filed as toxicity. The conditions noted are these: human, HEK293 cells versus Plasmodium falciparum 3D7; read-out: Ratio IC50.
Data set [7] can be described thus: Cytotoxicity against HEK293 cells assessed as cell growth inhibition at 20 uM after 72 hrs by Alamar blue assay relative to control. Type of data set: cell-based. The conditions noted are these: human, read-out: GI.
Data set [8] is described as follows: as §1. Particulars: human, HEK293 cells; read-out: GI. Type of data set: cell-based.
In data set [9] the test system is Plasmodium falciparum. The data set can be described thus: Antimalarial activity against Plasmodium falciparum 3D7 at 10 uM after 72 hrs by DAPI staining-based fluorescence microscopic analysis. Type of data set: functional.
For data set [10], the system named is HEK293. The data set can be described thus: Cytotoxicity against HEK293 cells assessed as cell growth inhibition at 40 uM after 72 hrs by Alamar blue assay. Type of data set: cell-based. The conditions noted are these: human, hek293, 72 h.
For data set [11], the system named is Plasmodium falciparum. The data set can be described thus: Antimalarial activity against Plasmodium falciparum Dd2 at 80 uM after 72 hrs by DAPI staining-based fluorescence microscopic analysis. It is filed as functional.

Usually IC50 stands for the midpoint of a concentration-inhibition curve. As for `CC(C)=CCC[C@H](C)[C@H]1c2cc(C(=O)NCCc3ccc(Cl)cc3)c(OC(=O)C(C)(C)C)c(OC(=O)C(C)(C)C)c2[C@H](C)C[C@H]1OC(=O)C(C)(C)C`, the IC50 was found to be 2.7 µM with Plasmodium falciparum [1], 5.94 µM with Plasmodium falciparum [2] and 80 µM in the data set with HEK293 [5]. Further, the Ratio IC50 in data set [3] worked out at 2.2. For the same compound, in the data set on HEK293 [4], the “growth inhibition (GI)” value was “Non-Toxic”. Also, the selectivity ratio in data set [6] is more than 30.
`C[C@H]1[C@H](OC(=O)CCC(=O)O)O[C@@H]2O[C@@]3(C)CC[C@H]4[C@H](C)CC[C@@H]1[C@@]24OO3` [ARTESUNATE]: the figures for the IC50 in the data set on Plasmodium falciparum [2] and with HEK293 [5] were 0.001 µM and 10 µM, respectively. Also, the inhibition at 72 h, 20 µM in data set [7] was determined as 91%. Moreover, the selectivity ratio in data set [6] was more than 11600.
As to `CC(C)=CCC[C@H](C)[C@H]1c2cc(C(=O)NCCc3ccc(Br)cc3)c(OC(=O)C(C)(C)C)c(OC(=O)C(C)(C)C)c2[C@H](C)C[C@H]1OC(=O)C(C)(C)C`, the concentration for half-maximal inhibition (IC50) in the data set with Plasmodium falciparum [1] turned out to be 3.12 µM; in the data set with Plasmodium falciparum [2] it was 7.42 µM; with HEK293 [5] it was 80 µM. Further, the Ratio IC50 in [3] turned out to be 2.4. The “growth inhibition (GI)” value in the data set with HEK293 [4] was “Non-Toxic”. The selectivity ratio in [6] was more than 26.
For `CC(C)=CCC[C@H](C)[C@H]1c2cc(C(=O)O)c(O)c(OC(=O)C(C)(C)C)c2[C@H](C)C[C@H]1OC(=O)C(C)(C)C`, the half-inhibitory concentration (IC50) in the data set with Plasmodium falciparum [1] came out at 8.44 µM; in the data set with Plasmodium falciparum [2], 10.2 µM; with HEK293 [5], 40 µM. Moreover, the Ratio IC50 in data set [3] is 1.2. In [8], the inhibition at 72 h, 80 µM was determined as 100%. The selectivity ratio in [6] came to 4.7.
For the compound `CC(=O)O[C@@H]1C[C@@H](C)c2c(cc(C(=O)O)c(O)c2O)[C@@H]1[C@@H](C)CCC=C(C)C`, in the data set with Plasmodium falciparum [9], the result was inactive.
In the case of `CC(C)=CCC[C@H](C)[C@H]1c2cc(C(=O)NCc3ccc(Cl)cc3)c(OC(=O)C(C)(C)C)c(OC(=O)C(C)(C)C)c2[C@H](C)C[C@H]1OC(=O)C(C)(C)C`, the IC50 in the data set on Plasmodium falciparum [1] is 1.36 µM; in the data set with Plasmodium falciparum [2], 4.96 µM; in the data set on HEK293 [5] it was 40 µM. Besides, the Ratio IC50 in [3] is 3.6. For the same compound, the inhibition at 72 h, 80 µM in data set [8] came to 86%. The selectivity ratio in [6] worked out at 29.4.
For `CC(C)=CCC[C@H](C)[C@H]1c2cc(C(=O)NCCc3ccc(Cl)cc3)c(OC(=O)C(C)(C)C)c(OC(=O)C(C)(C)C)c2[C@H](C)C[C@H]1O`, the IC50 was found to be 2.44 µM in the data set with Plasmodium falciparum [1], 4.57 µM with Plasmodium falciparum [2] and 80 µM in the data set with HEK293 [5]. In addition, the Ratio IC50 in data set [3] stood at 1.9. Moreover, in data set [8], the inhibition at 72 h, 80 µM is 68%. Also, in [6], the selectivity ratio came out at 32.
Consider `CCN(CC)CCCC(C)Nc1ccnc2cc(Cl)ccc12` (stereo not given) [CHLOROQUINE], for which the 50% inhibitory concentration (IC50) in the data set with HEK293 [5] is 40 µM. Further, in the data set with HEK293 [10], the “growth inhibition (GI)” value is given as “Non-Toxic”.
With `CC(C)=CCC[C@H](C)[C@H]1c2cc(C(=O)O)c(OC(=O)C(C)(C)C)c(OC(=O)C(C)(C)C)c2[C@H](C)C[C@H]1OC(=O)C(C)(C)C`, the values for the half-maximal inhibitory concentration (IC50) with Plasmodium falciparum [1], with Plasmodium falciparum [2] and with HEK293 [5] were 9.97 µM, 18 µM and 40 µM, respectively. The Ratio IC50 in data set [3] was 1.8. In addition, in [8], the inhibition at 72 h, 80 µM was determined as 100%. Moreover, the selectivity ratio in data set [6] is 4.
Take `CC(C)=CCC[C@H](C)[C@H]1c2cc(C(=O)NCCN(C)C)c(OC(=O)C(C)(C)C)c(OC(=O)C(C)(C)C)c2[C@H](C)C[C@H]1OC(=O)C(C)(C)C`: the values for the IC50 in the data set with Plasmodium falciparum [1], in the data set with Plasmodium falciparum [2] and in the data set with HEK293 [5] were 5.65 µM, 8.76 µM and 14.6 µM, respectively. The Ratio IC50 in data set [3] was found to be 1.6. The selectivity ratio in [6] came to 2.6.
As for `CC(C)=CCC[C@H](C)[C@H]1c2cc(C(=O)O)c(O)c(O)c2[C@H](C)C[C@H]1O`, the outcome with Plasmodium falciparum [9] was inactive.
For `CC(C)=CCC[C@H](C)[C@H]1c2cc(C(=O)NCCc3ccccc3)c(OC(=O)C(C)(C)C)c(OC(=O)C(C)(C)C)c2[C@H](C)C[C@H]1OC(=O)C(C)(C)C`, the figures for the IC50 in the data set with Plasmodium falciparum [1], in the data set on Plasmodium falciparum [2] and in the data set with HEK293 [5] were 1.4 µM, 3.63 µM and 80 µM, respectively. Moreover, the Ratio IC50 in data set [3] came out at 2.6. Also, the “growth inhibition (GI)” value with HEK293 [4] is listed as “Non-Toxic”. The selectivity ratio in [6] is more than 57.
Consider `CC(=O)OCc1cc2c(c(O)c1O)[C@H](C)C[C@@H](OC(C)=O)[C@H]2[C@@H](C)CCC=C(C)C`, for which the results for the IC50 with Plasmodium falciparum [1], with Plasmodium falciparum [2] and with HEK293 [5] were 6.89 µM, 8.76 µM and 80 µM, respectively. Moreover, in [3], the Ratio IC50 came to 1.3. Further, in data set [8], the inhibition at 72 h, 80 µM amounted to 59%. Further, the selectivity ratio in data set [6] was 11.6.
Take `COc1ccc(C[C@H](N)C(=O)N[C@H]2[C@@H](O)[C@H](n3cnc4c(N(C)C)ncnc43)O[C@@H]2CO)cc1` [PUROMYCIN]: the IC50 turned out to be 0.0532 µM with Plasmodium falciparum [1], 0.0438 µM in the data set on Plasmodium falciparum [2] and 0.46 µM in the data set on HEK293 [5]. In addition, in [3], the Ratio IC50 was found to be 1.16. Moreover, the selectivity ratio in data set [6] is 9.
Regarding `CC(C)=CCC[C@H](C)[C@H]1c2cc(C(=O)NCc3ccc(F)cc3)c(OC(=O)C(C)(C)C)c(OC(=O)C(C)(C)C)c2[C@H](C)C[C@H]1OC(=O)C(C)(C)C`, the IC50 in the data set on Plasmodium falciparum [1] was 1.79 µM; with Plasmodium falciparum [2], 6.13 µM; in the data set with HEK293 [5], 80 µM. Also, the Ratio IC50 in [3] came out at 3.4. Also, the inhibition at 72 h, 80 µM in data set [8] stood at 44%. The selectivity ratio in data set [6] turned out to be 44.
With `CC(C)=CCC[C@H](C)[C@H]1c2cc(C(=O)NCc3ccccc3)c(OC(=O)C(C)(C)C)c(OC(=O)C(C)(C)C)c2[C@H](C)C[C@H]1OC(=O)C(C)(C)C`, the half-maximal inhibitory concentration (IC50) in the data set with Plasmodium falciparum [1] amounted to 2.12 µM; in the data set on Plasmodium falciparum [2], 6.17 µM; with HEK293 [5], 40 µM. In [3], the Ratio IC50 came to 2.9. For the same compound, the inhibition at 72 h, 80 µM in data set [8] is 82%. For the same compound, in [6], the selectivity ratio was determined as 19.
`CC(C)=CCC[C@H](C)[C@H]1c2cc(C(=O)NCc3ccc(Br)cc3)c(OC(=O)C(C)(C)C)c(OC(=O)C(C)(C)C)c2[C@H](C)C[C@H]1OC(=O)C(C)(C)C`: the IC50 stood at 1.42 µM in the data set with Plasmodium falciparum [1], 5.03 µM with Plasmodium falciparum [2] and 40 µM with HEK293 [5]. In [3], the Ratio IC50 worked out at 3.6. The inhibition at 72 h, 80 µM in [8] stood at 71%. Further, in [6], the selectivity ratio turned out to be 28.
As for `CC(C)=CCC[C@H](C)[C@H]1c2cc(C(=O)O)c(OC(=O)C(C)(C)C)c(OC(=O)C(C)(C)C)c2[C@H](C)C[C@H]1O`, the figures for the half-inhibitory concentration (IC50) in the data set with Plasmodium falciparum [1] and with HEK293 [5] were 13.6 µM and 40 µM, respectively. Further, the inhibition at 72 h, 80 µM in data set [8] is 70%. Further, in the data set with Plasmodium falciparum [11], the outcome was inactive. In [6], the selectivity ratio was 2.9.
On to `CC(C)=CCC[C@H](C)[C@H]1c2cc(C(=O)NCCc3ccc(F)cc3)c(OC(=O)C(C)(C)C)c(OC(=O)C(C)(C)C)c2[C@H](C)C[C@H]1OC(=O)C(C)(C)C`, for which the IC50 amounted to 1.25 µM with Plasmodium falciparum [1], 3.76 µM in the data set with Plasmodium falciparum [2] and 80 µM in the data set on HEK293 [5]. In [3], the Ratio IC50 is 3. Moreover, the “growth inhibition (GI)” value in the data set with HEK293 [4] is on record as “Non-Toxic”. Also, in [6], the selectivity ratio is more than 64.
